Source: patent publication US8637237B2, “Methods, compositions, and systems for the identification of species-specific or developmental stage-specific insecticides” (The University of North Carolina at Greensboro, priority 2003, dated 2014)

Target: T1, GRdEcR/RXR (Drosophila melanogaster, UniProt P34021, E261P/P331L/Q260P/V259R)
T1 construct: ligation of a Not I-Bam HI fragment containing the DBD and LBD of a modified EcR cDNA, EcRnx; expressed in transfected cells; host or cells: CHO
T1 sequence (P34021 259-878 V259R/Q260P/E261P/P331L limits assumed): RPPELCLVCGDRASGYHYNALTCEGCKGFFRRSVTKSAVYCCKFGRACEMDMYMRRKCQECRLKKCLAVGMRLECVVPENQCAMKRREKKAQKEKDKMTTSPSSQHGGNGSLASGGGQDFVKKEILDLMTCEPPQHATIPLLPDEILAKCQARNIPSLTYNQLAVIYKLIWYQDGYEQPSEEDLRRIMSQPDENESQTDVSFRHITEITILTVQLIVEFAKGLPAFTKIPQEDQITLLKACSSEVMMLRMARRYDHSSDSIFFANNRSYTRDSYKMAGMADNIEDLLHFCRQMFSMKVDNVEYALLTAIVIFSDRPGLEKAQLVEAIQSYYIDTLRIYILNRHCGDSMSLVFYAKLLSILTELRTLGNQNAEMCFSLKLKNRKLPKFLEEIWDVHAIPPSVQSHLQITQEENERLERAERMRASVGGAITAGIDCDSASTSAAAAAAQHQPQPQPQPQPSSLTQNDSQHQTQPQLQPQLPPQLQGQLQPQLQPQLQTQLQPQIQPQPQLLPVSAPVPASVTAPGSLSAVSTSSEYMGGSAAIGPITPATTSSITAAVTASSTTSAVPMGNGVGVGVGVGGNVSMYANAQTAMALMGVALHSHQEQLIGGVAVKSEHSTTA
T1 sequence (P28700 1-467 partner): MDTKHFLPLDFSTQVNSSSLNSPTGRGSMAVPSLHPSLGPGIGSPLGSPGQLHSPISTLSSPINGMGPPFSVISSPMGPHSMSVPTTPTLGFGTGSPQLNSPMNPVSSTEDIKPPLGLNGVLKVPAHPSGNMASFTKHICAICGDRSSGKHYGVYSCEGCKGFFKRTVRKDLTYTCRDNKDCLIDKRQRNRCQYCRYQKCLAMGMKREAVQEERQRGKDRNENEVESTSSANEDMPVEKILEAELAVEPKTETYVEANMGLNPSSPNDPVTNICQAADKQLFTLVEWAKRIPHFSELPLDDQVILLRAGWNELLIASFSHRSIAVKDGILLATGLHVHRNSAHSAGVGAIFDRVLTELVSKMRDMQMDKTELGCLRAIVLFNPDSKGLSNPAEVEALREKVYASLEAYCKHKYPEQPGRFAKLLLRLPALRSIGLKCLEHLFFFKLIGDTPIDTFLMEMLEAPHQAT
Assay: GRdEcR (GEcEc) chimera with RXR, (EcRE)5-ΔMTV reporter in CHO cells
Type: cell-based
Method: These experiments employed a mammalian cell culture system using Chinese hamster ovary cells (CHO) to evaluate the transcriptional function of Drosophila melanogaster EcR and USP using methods described previously (U.S. Patent Application Publication No: 2005/0049230; Henrich et al, 2003). Cells were seeded in 6-well polypropylene culture plates (Falcon) with 10^5 cells per well on the day prior to transfection. Transfection was subsequently performed using either calcium phosphate (Kitareewan et al., 1996, Mol. Biol. Cell, 7:1153-1196) or a GenePorter reagent (Gene Therapy Systems, Inc; San Diego, Calif.) following manufacturer's protocols. Each well received 1.25 μg of (EcRE)5-ΔMTV-CAT (five copies of the hsp27 EcRE inserted into an mouse mammary tumor virus (MTV) promoter upstream of the chloramphenicol acetyltransferase (CAT) gene) or (EcRE)5-ΔMTV-LUC (the same promoter attached to firefly luciferase), 1.25 μg of pCH111 (SV40 early promoter linked to the β-galactosidase gene) to normalize CAT activity, and 0.25 μg of each expression plasmid (EcR, FXR, RXR, USP) that was tested. The cells were incubated with plasmid DNA for seven hours and then washed with 1×PBS. Muristerone A (murA; Alexis Biochemicals) or 20-hydroxyecdysone (20E; Sigma) dissolved in ethanol to a concentration of 10 mM was diluted as necessary to the final assay concentration (FAC) in 2 ml of fresh incubation medium that was then applied to the cells. Similarly, JHIII (Sigma) was dissolved in dimethyl sulfoxide (DMSO) to a concentration of […] and diluted into the incubation medium to its final assay concentration (20, 40, 80, 160 μM). […] A corresponding volume of ethanol and DMSO were added to control cells for all experiments. For all experiments, the cells were allowed to incubate with the medium for 24 hours before collection and cell lysates were prepared by described methods (Kitareewan et al., 1996). Both β-galactosidase and CAT reporter activity were measured based on previously used methods (Kitareewan et al, 1996). Luciferase assays using luciferrin followed the specifications of the manufacturer.
Transcriptional activity, measured as ^14C-chloramphenicol counts (for measuring CAT activity) or relative luciferase activity (RLU) was quantified for each cell lysate. The counts were then normalized by adjusting for differences in β-galactosidase activity, since β-galactosidase expression is controlled by a constitutive promoter and provides an estimate of cell mass. Data were normalized as fold-induction based on differences in reporter gene activity between hormonally treated and control cells.
In an initial series of studies, a GRdEcR chimera that consists of the rat glucocorticoid receptor (GR) activation domain attached to the EcR DBD and LBD (FIG. 1) was cotransfected along with mRXRα into CHO cells. The response of transfected cells to murA was measured using a (EcRE)5-ΔMTV-CAT reporter plasmid that carries five tandem repeats of the hsp27 EcRE linked to the MTV (mouse mammary tumor virus) promoter and the chloramphenicol acetyltransferase gene (CAT).
The prominent candidate for this JH-responsive macromolecule in insects is the structurally-related ecdysone receptor (EcR). Like FXR, EcR heterodimerizes with RXR and binds to the hsp27 ecdysone-responsive DNA element (Forman et al., 1995), but distinctively activates transcription in response to muristerone A (MurA or MUR), a synthetic ecdysone (Yao et al., 1992). […] In the experiments shown in FIG. 15A, muristerone A (MUR) was added at the indicated doses in ethanol vehicle, and increasing amounts of JH III (12, 25, or 50 μM) were added (underlying triangles). Numbers over bars indicate the ratio of the GEcEc-dependent activity produced by 50 μM JH III in the presence of the indicated dose of MUR to the activity produced by MUR alone. Relative light units (RLU) from firefly luciferase in cell lysates are expressed relative to renilla luciferase (Promega).

Molecule: COC(=O)/C=C(\C)CC/C=C(\C)CC[C@H]1OC1(C)C [JHIII, juvenile hormone III]
- increase of MurA-induced GEcEc-dependent activity by JH III (80 μM JH III added to MurA): 3 times
- response of GEcEc to JH III alone (80 μM JH III, no MurA): failed to respond
- potentiation of murA response by JHIII (20, 40, 80, 160 μM JHIII at submaximal murA (0.1 μM and 1 μM)): potentiated the response of murA in a dose-dependent manner
- MurA + JHIII (JHIII potentiation) (GRdEcR/RXR, 0.1 μM murA + 80 μM JHIII): + ((+) indicates observed potentiation that exceeds 2-fold above the levels observed with ecdysteroid alone)
- effect of JHIII alone on transcription (no murA): did not show an effect

Molecule: CC(C)CC[C@@H](O)[C@](C)(O)[C@H]1CC[C@@]2(O)C3=CC(=O)[C@]4(O)C[C@@H](O)[C@@H](O)C[C@]4(C)[C@H]3[C@H](O)C[C@]12C [murA, muristerone A]
- lowest murA dosage evoking a detectable response (GRdEcR + RXR, CAT reporter): 0.1 µM
- MurA (inducibility) (GRdEcR/RXR, 0.1 μM murA): + ((+) designates a change in transcriptional level that exceeds 2.5-fold)

Molecule: juvocimene
- potentiation of MUR-inducible GEcEc-dependent activity (25 μM test compound, 0.2 μM muristerone A): between two and four times
